From patent publication US20200188465A1, “TREATMENT OF CYTOKINE RELEASE SYNDROME BY DECREASING LEVEL OF PROINFLAMMATORY CYTOKINE” (Gwo Xi Stem Cell Applied Technology Co., Ltd., priority 2018, published 2020)
Entries after “also recorded” stand apart in the source; their conditions may differ. Like-named read-outs stand apart in the source and are kept apart here.

Tests used:
Type in all cases: cell-based, Human
[1] = test system: Jurkat T cells; experiment: Cell viability (MTS) of Jurkat T cells pre-stimulated with PMA plus ionomycin, then drug (Embodiment 1)
Method: (§1) Human Jurkat T cell line (Clone E6-1, ATCC TIB 152) and THP-1 were used in the embodiments and purchased from Bioresource Collection and Research Centre (BCRC), Taiwan. The cells were maintained in RPMI 1640 medium (Gibco, Carlsbad, Calif., USA) with 2 mM L-glutamine adjusted to contain 1.5 g/L sodium bicarbonate, 4.5 g/L glucose, 10 mM HEPES, 1.0 mM sodium pyruvate, 1% (v/v) penicillin-streptomycin (HyClone, Logan, Utah), and 10% (v/v) fetal bovine serum (FBS; HyClone). The cells were kept in the incubator with 5% CO2 at 37° C. The passages were performed when the cell density didn't allow the cell concentration to exceed 3×10^6 cells/mL.
(§2) Jurkat cells were seeded in 48-well culture plates at a density of 5.0×10^5 cells/mL in culture medium. To promote Interferon gamma (IFN-γ; IFNG) production, the cells were stimulated with or without the combination of PMA and Ionomycin in culture medium. THP-1 cells were treated with or without the LPS that promoted IL6 production.
(§3) The cell viability was determined using MTS reagent (Promega). Assays were performed by adding MTS to each well for 3 hours at 37° C. with 5% CO2. The amount of formazan converted by living cells, and then recording absorbance at 490 nm with a 96-well plate reader.
(§4) After 6 and 24 hours, the supernatants were collected for cell viability analysis and cytokine analysis. The concentration of cytokine was measured by Human IFN-γ ELISA kit (Invitrogen) according to the manufacturers.

[2] = test system: IFN-γ; experiment: IFN-γ release (ELISA) of Jurkat T cells pre-stimulated with PMA plus ionomycin, then drug (Embodiment 1); settings: for IFN-γ content in the cells is reduced at least: summary, concentration not given; for IFN-γ/cell viability: Jurkat pretreated PMA + ionomycin
Method: as §1, §2
(§5) The culture supernatants were harvested by centrifugation and stored at −20° C. for cytokine analysis. The concentration of IFN-γ and IL6 were measured by ELISA kit (Invitrogen, Carlsbad, Calif., USA) according to the manufacturer's instructions.
as §4

[3] = test system: THP-1 cells; experiment: Cell viability (MTS) of THP-1 cells pre-stimulated with LPS, then drug (Embodiment 2)
[4] = test system: IL6; experiment: IL6 release (ELISA) of THP-1 cells pre-stimulated with LPS, then drug (Embodiment 2); settings: for IL-6 content in the cells is reduced at least: summary, concentration not given; for IL6/cell viability: THP-1 pretreated LPS
Method: HyClone). […] The passages were performed when the cell density didn't allow the cell concentration to exceed 3×10^6 cells/mL. Jurkat cells were seeded in 48-well culture plates at a density of 5.0×10^5 cells/mL in culture medium. To promote Interferon gamma (IFN-γ; IFNG) production, the cells were stimulated with or without the combination of PMA and Ionomycin in culture medium. THP-1 cells were treated with or without the LPS that promoted IL6 production. The culture supernatants were harvested by centrifugation and stored at −20° C. for cytokine analysis. The concentration of IFN-γ and IL6 were measured by ELISA kit (Invitrogen, Carlsbad, Calif., USA) according to the manufacturer's instructions. […] The concentration of cytokine was measured by IL6 ELISA kit (Invitrogen) according to the manufacturers.

[5] = test system: Jurkat cells; experiment: Cell viability (MTS) of Jurkat cells co-treated with PMA, ionomycin and drug (Embodiments 3 and 4)
Method: as §1, §3
(§6) In the Embodiment, Jurkat cells were seeded in 48-well culture plates at a density of 5.0×10^5 cells/mL indifferent culture medium, and each of the culture medium contains PMA, ionomycin, and THZ in the proportions shown in Table 3 below.
(§7) After 24 and 48 hours, the supernatants were collected for cell viability analysis and cytokine analysis. The concentration of cytokine was measured by Human IFN-γ ELISA kit (Invitrogen) according to the manufacturers.
(§8) In the Embodiment, Jurkat cells were seeded in 48-well culture plates at a density of 5.0×10^5 cells/mL in different culture medium, and each of the culture medium contains PMA, ionomycin, and HH-F3 in the proportions shown in Table 4 below.
(§9) After 24, 30, and 48 hours, the supernatants were collected for cell viability analysis and cytokine analysis. The concentration of cytokine was measured by Human IFN-γ ELISA kit (Invitrogen) according to the manufacturers.

[6] = test system: IFN-γ; experiment: IFN-γ release (ELISA) of Jurkat cells co-treated with PMA, ionomycin and drug (Embodiments 3 and 4); settings: for inhibition at 1 µM / inhibition at 5 µM: Homo sapiens, Jurkat, read-out: IFN-γ/cell viability lower than group 2 (PI alone); for inhibition at 1 µM: group 3 (THZ 1 μM); for inhibition at 5 µM: group 4 (THZ 5 μM); for effect on cytokine induction, in words: co-treatment with PMA + ionomycin
Method: as §1, §5, §6, §7, §8, §9

[7] = drug 1 μM, 6 h, Jurkat pretreated PMA 0.01 μg/mL + ionomycin 1 μM 24 h
[8] = drug 1 μM, 24 h, Jurkat pretreated PMA + ionomycin
[9] = drug 5 μM, 6 h, Jurkat pretreated PMA + ionomycin
[10] = drug 5 μM, 24 h, Jurkat pretreated PMA + ionomycin
[11] = drug 10 μM, 6 h, Jurkat pretreated PMA + ionomycin
[12] = drug 10 μM, 24 h, Jurkat pretreated PMA + ionomycin
[13] = at 24 hours after administering
[14] = drug 1 μM, 6 h, IFN-γ normalized with cell viability
[15] = group 3, THZ 1 μM co-treated with PI, 48 hr
[16] = group 4, THZ 5 μM co-treated with PI, 24 hr
[17] = group 4, THZ 5 μM co-treated with PI, 48 hr

CSc1ccc2c(c1)N(CCC1CCCCN1C)c1ccccc1S2 (stereo not drawn) [THZ, Thioridazine]
Cell Viability (%) [1, 7]: 79 ± 5%
Cell Viability (%) [1, 8]: 69 ± 6%
Cell Viability (%) [1, 9]: 77 ± 2%
Cell Viability (%) [1, 10]: 69 ± 4%
Cell Viability (%) [1, 11]: 77 ± 2%
Cell Viability (%) [1, 12]: 55 ± 3%
IFN-γ content in the cells reduced ([2]; 1 μM, after 6 hours, vs PMA + ionomycin alone): 18.6%
IFN-γ content in the cells reduced ([2]; 1 μM, after 24 hours): 28.2%
IFN-γ content in the cells reduced ([2]; 5 μM, after 6 hours): 23.7%
IFN-γ content in the cells reduced ([2]; 5 μM, after 24 hours): 57.7%
IFN-γ content in the cells reduced ([2]; 10 μM, after 6 hours): 36.2%
IFN-γ content in the cells reduced ([2]; 10 μM, after 24 hours): 52.2%
effect on IFN-γ content, in words ([2]; Jurkat, PMA + ionomycin, 6 hr and 24 hr): significantly decreased IFN-γ expression; also recorded: stronger effects to cells compared to TFP and SAHA
IFN-γ content in the cells is reduced at least ([2]; at 6 hours after administering): at least 18.6%
IFN-γ content in the cells is reduced at least [2, 13]: at least 28.2%
IFN-γ/cell viability [2, 14]: 38.4 pg/mL
IFN-γ/cell viability ([2]; drug 1 μM, 24 h): 24.4 pg/mL
IFN-γ/cell viability ([2]; drug 5 μM, 6 h): 36.0 pg/mL
IFN-γ/cell viability ([2]; drug 5 μM, 24 h): 14.4 pg/mL
IFN-γ/cell viability ([2]; drug 10 μM, 6 h): 30.1 pg/mL
IFN-γ/cell viability ([2]; drug 10 μM, 24 h): 16.3 pg/mL
Cell Viability (%) ([3]; drug 1 μM, 6 h, THP-1 pretreated LPS 0.1 μg/mL 16 h): 88 ± 7%
Cell Viability (%) ([3]; drug 1 μM, 24 h, THP-1 pretreated LPS): 103 ± 1%
Cell Viability (%) ([3]; drug 5 μM, 6 h, THP-1 pretreated LPS): 79 ± 5%
Cell Viability (%) ([3]; drug 5 μM, 24 h, THP-1 pretreated LPS): 101 ± 8%
Cell Viability (%) ([3]; drug 10 μM, 6 h, THP-1 pretreated LPS): 68 ± 4%
Cell Viability (%) ([3]; drug 10 μM, 24 h, THP-1 pretreated LPS): 87 ± 5%
IL-6 content in the cells reduced ([4]; 1 μM, after 6 hours, vs LPS alone): 20.7%
IL-6 content in the cells reduced ([4]; 1 μM, after 24 hours): 39.5%
IL-6 content in the cells reduced ([4]; 5 μM, after 6 hours): 37.1%
IL-6 content in the cells reduced ([4]; 5 μM, after 24 hours): 51.8%
IL-6 content in the cells reduced ([4]; 10 μM, after 6 hours): 45.9%
IL-6 content in the cells reduced ([4]; 10 μM, after 24 hours): 65.2%
IL-6 content in the cells is reduced at least ([4]; "at hours after administering" (number not given)): at least 20.7%
effect on IL-6 content, in words ([4]; Table 2, 6 hr and 24 hr): stronger effects to cells compared to TFP
IL-6 content in the cells is reduced at least [4, 13]: at least 39.5%
IL6/cell viability ([4]; drug 1 μM, 6 h, IL6 normalized with cell viability): 52.9 pg/mL
IL6/cell viability ([4]; drug 1 μM, 24 h): 41.3 pg/mL
IL6/cell viability ([4]; drug 5 μM, 6 h): 41.9 pg/mL
IL6/cell viability ([4]; drug 5 μM, 24 h): 32.9 pg/mL
IL6/cell viability ([4]; drug 10 μM, 6 h): 36.1 pg/mL
IL6/cell viability ([4]; drug 10 μM, 24 h): 23.7 pg/mL
effect on cell viability, in words ([5]; co-treatment with PMA + ionomycin): does not affect cell viability
Cell Viability (%) [5, 15]: 71 ± 4%
Cell Viability (%) ([5]; group 3, THZ 1 μM co-treated with PMA 0.01 μg/mL + ionomycin 1 μM, 24 hr): 81 ± 4%
Cell Viability (%) [5, 16]: 74 ± 6%
Cell Viability (%) [5, 17]: 65 ± 4%
inhibition at 1 µM ([6]; 24 hr): 46.5%
inhibition at 1 µM ([6]; 48 hr): 18.7%
inhibition at 5 µM ([6]; 24 hr): 45.3%
inhibition at 5 µM ([6]; 48 hr): 1%
effect on cytokine induction, in words [6]: significantly attenuated cytokine induction in Jurkat cells
effect on cytokine induction, in words ([6]; listed as Thioridazine): able to reduce cytokine production
IFN-γ/cell viability ([6]; group 3, THZ 1 μM co-treated with PI, 24 hr): 34.9 ± 0.5 pg/mL
IFN-γ/cell viability [6, 15]: 32.6 ± 0.6 pg/mL
IFN-γ/cell viability [6, 16]: 35.7 ± 0.2 pg/mL
IFN-γ/cell viability [6, 17]: 39.7 ± 0.6 pg/mL

O=C(CCCCCCC(=O)Nc1ccccc1)NO [SAHA, Suberoylanilide hydroxamic acid]
Cell Viability (%) [1, 7]: 70 ± 9%
Cell Viability (%) [1, 8]: 53 ± 5%
Cell Viability (%) [1, 9]: 65 ± 7%
Cell Viability (%) [1, 10]: 59 ± 2%
Cell Viability (%) [1, 11]: 65 ± 2%
Cell Viability (%) [1, 12]: 60 ± 6%
IFN-γ/cell viability [2, 14]: 25.5 pg/mL
IFN-γ/cell viability ([2]; drug 1 μM, 24 h): 33.8 pg/mL
IFN-γ/cell viability ([2]; drug 5 μM, 6 h): 28.2 pg/mL
IFN-γ/cell viability ([2]; drug 5 μM, 24 h): 34.0 pg/mL
IFN-γ/cell viability ([2]; drug 10 μM, 6 h): 28.0 pg/mL
IFN-γ/cell viability ([2]; drug 10 μM, 24 h): 32.0 pg/mL
